Key:
[1] = test system: memory impairment caused by NMDA receptor blocker MK-801; experiment: Passive avoidance test in MK-801 dementia model mice; format: in vivo; settings: MK-801 alone, 0.2 mg/kg body weight subcutaneous, DDY mice
Protocol: In this example, passive avoidance tests using dementia model mice having MK-801 administered thereto were carried out for estimation of effects of the ceramide-containing matter on memory impairments.
More specifically, 7 week old male DDY mice (available from Japan SLC, Inc.) were pre-fed for experimentation. The ceramide-containing matter suspended in an aqueous solution of 0.5% carboxymethyl cellulose sodium (CMC) was orally administrated to the mice once per day in a dose of 100 mg/kg body weight or 500 mg/kg body weight for six days. At the 7th and 8th days from the onset of administration, training and retention trials of passive avoidance testing were carried out. Ninety (90) minutes before the training trial of passive avoidance testing, 100 mg/kg body weight or 500 mg/kg body weight of the ceramide-containing matter or an aqueous solution of solvent 0.5% CMC were orally administrated to the mice, followed by subcutaneous administration of non-competitive NMDA receptor blocker MK-801 (0.2 mg/kg body weight) or a physiological saline solution 60-minute later. Thirty (30) minutes after that, training trial of passive avoidance testing was carried out, and after the elapse of 24 hours, retention testing was carried out. […]

[2] = test system: MEK/ERK signaling system in PC-12 cells; experiment: MEK-ERK signaling system in neural model cells with MEK inhibitor (western blot); format: cell-based, rat; settings: UO126 10 μM added 30 minutes before 30 μg/mL ceramide-containing matter
Protocol: An inhibitor of MEK that was the upstream kinase of extracellular signal-regulated kinase (ERK1/2) was used to make an estimation of the effect of the ceramide-containing matter on the MEK/ERK signaling system in PC-12 cells. The PC-12 cells were cultured in a D-MEM culture medium containing 5% bovine serum and 5% horse serum. The MEK inhibitor UO126 was dissolved in dimethyl-sulfoxide (DMSO), and the resulting solution was added to the cells in such an amount as to give 10 μM, and 30 minutes after that, the ceramide-containing matter dissolved in DMSO was added to the cells in such an amount as to give 30 μg/mL for 10-minute culture. After culture, the cells were collected for estimation of the phosphorylation ERK1/2 (phospho ERK1/2) level important for memory formation by means of the western blot method using anti-phospho ERK1/2 antibody and/or anti-total ERK1/2 antibody. Note here that a sample treated with nobiletin (30 μM) was used as a positive control.

C[C@]12N[C@H](Cc3ccccc31)c1ccccc12 [MK-801]
reaction latency in retention trial versus solvent control group [1]: significantly lower in the reaction latency

N#CC(=C(/N)Sc1ccccc1N)/C(C#N)=C(/N)Sc1ccccc1N [UO126]
rise of ERK1/2 phosphorylation level caused by the ceramide-containing matter, after MEK inhibitor pretreatment [2]: kept low
